This is an account of results in paper PMC7774306, “The Crystal Structures of Bacillithiol Disulfide Reductase Bdr (YpdA) Provide Structural and Functional Insight into a New Type of FAD-Containing NADPH-Dependent Oxidoreductase” (Biochemistry, 2020).

Structures are written as SMILES.

The target of assay [1] is T1, Bc YpdA (Bdr) (Bacillus cereus, UniProt Q81FS4).
T1 construct: gene BC_1495; expressed and purified; FAD-containing; biological homotetramer; tag details only in supplement
T1 sequence (Q81FS4 1-326): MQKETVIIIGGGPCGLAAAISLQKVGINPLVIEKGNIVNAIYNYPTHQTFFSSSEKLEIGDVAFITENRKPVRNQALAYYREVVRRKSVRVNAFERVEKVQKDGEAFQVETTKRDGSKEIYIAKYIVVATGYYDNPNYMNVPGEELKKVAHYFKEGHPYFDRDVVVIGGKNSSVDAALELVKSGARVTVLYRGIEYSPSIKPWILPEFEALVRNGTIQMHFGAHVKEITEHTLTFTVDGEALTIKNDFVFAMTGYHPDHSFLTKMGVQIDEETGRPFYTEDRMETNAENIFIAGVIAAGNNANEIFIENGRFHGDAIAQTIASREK
Nature of the assay: NADPH consumption at […] nm. The settings on record: anaerobic. Format: biochemical.

In assay [2] the target is T2, Sa YpdA (Bdr) (Staphylococcus aureus, UniProt A0A0H2WWS2).
T2 construct: gene SACOL1520; expressed and purified; FAD-containing; biological homotetramer; tag details only in supplement
T2 sequence (A0A0H2WWS2 1-328): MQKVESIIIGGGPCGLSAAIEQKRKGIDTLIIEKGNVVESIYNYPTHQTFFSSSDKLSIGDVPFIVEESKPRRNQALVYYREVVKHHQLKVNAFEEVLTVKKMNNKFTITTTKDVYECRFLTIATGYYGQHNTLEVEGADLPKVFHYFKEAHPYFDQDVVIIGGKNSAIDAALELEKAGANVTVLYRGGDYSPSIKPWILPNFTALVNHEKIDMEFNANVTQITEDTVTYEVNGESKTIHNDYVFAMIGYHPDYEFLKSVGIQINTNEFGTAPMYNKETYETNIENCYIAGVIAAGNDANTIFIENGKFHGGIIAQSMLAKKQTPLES
In words: NADPH consumption at […] nm. In kind it is biochemical. To be noted: NADPH as co-substrate; anaerobic.

Assay [3] deals with T2, Sa YpdA (Bdr). Nature of the assay: X-ray crystallography. In kind it is binding.

Turning to `N[C@@H](CSSC[C@H](N)C(=O)N[C@H]1[C@@H](O[C@@H](CC(=O)O)C(=O)O)O[C@H](CO)[C@@H](O)[C@@H]1O)C(=O)N[C@H]1[C@@H](O[C@@H](CC(=O)O)C(=O)O)O[C@H](CO)[C@@H](O)[C@@H]1O` [BSSB], the “NADPH consumption at 340 nm” value in assay [1] (NADPH as co-substrate) was “YpdAs from Bc and Sa are both able to reduce BSSB”; in assay [2] it was “YpdAs from Bc and Sa are both able to reduce BSSB”. As for `NC(=O)C1=CN([C@@H]2O[C@H](COP(=O)(O)OP(=O)(O)OC[C@H]3O[C@@H](n4cnc5c(N)ncnc54)[C@H](OP(=O)(O)O)[C@@H]3O)[C@@H](O)[C@H]2O)C=CC1` [NADPH], in assay [1] (BSSB as co-substrate), the “NADPH consumption at 340 nm” value is “both Sa and Bc YpdAs can reduce BSSB with a rate of consumption of NADPH”. For the same compound, the X-ray crystallography entry in assay [3] (NADPH not added, co-purified, bound in chains C, D and F, FAD present) is on record as “we observed in both Sa YpdA structures electron density for bound NADPH”.

Regarding `Cc1cc2nc3c(=O)[nH]c(=O)nc-3n(C[C@H](O)[C@H](O)[C@H](O)COP(=O)(O)OP(=O)(O)OC[C@H]3O[C@@H](n4cnc5c(N)ncnc54)[C@H](O)[C@@H]3O)c2cc1C` [FAD], in assay [3] (bound cofactor, 2.9 and 3.1 A resolution), the X-ray crystallography result was “Monomer structure alignment of Bc and Sa YpdA, displaying the NADPH and FAD binding domains”.
